Where two headings read alike, the source gives them in different places.
Target: T1, TNFα / TNFα receptor (TNFα R1/Fc) (Homo sapiens, UniProt P01375)
T1 construct: purchased R&D Systems
Test: Inhibition of binding of TNFα to the TNFα receptor (plate ELISA competition)
Settings: Table 2
Summary of the method: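 Compound dilutions were preincubated 30 min at RT with 8.33 nM TNFα R1/Fc in PBST with 2% DMSO, then added to wells coated with 15 nM TNFα for 30 min. Bound receptor was detected with HRP anti-human Fc and TMB, read as A450.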

[1] = read-out: Activity (IC50, inhibition of TNFα binding to TNFα R1/Fc)
[2] = Activity (IC50, inhibition of TNFα binding to TNFα R1/Fc)

T1 sequence (P01375 77-233 limits assumed, species assumed): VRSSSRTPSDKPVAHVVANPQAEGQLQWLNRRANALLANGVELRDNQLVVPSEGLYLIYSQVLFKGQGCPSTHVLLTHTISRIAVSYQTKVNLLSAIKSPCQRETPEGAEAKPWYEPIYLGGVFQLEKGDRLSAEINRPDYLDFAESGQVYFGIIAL

| SMILES | IC50 [1] [µM] | IC50 [2] [µM] |
| --- | --- | --- |
| Cn1cnc(C[C@@H]2NC(=O)COc3ccc(cc3)C[C@@H](C(=O)O)NC(=O)[C@H](CCc3ccccc3)NC(=O)[C@@H](Cc3ccc(-c4ccccc4)cc3)NC2=O)c1 [Compound 706] | 10 to 30 |  |
| O=C(O)CCCNC(=O)[C@H]1Cc2ccc(cc2)OCC(=O)N[C@@H](Cc2ccncc2)C(=O)N[C@H](Cc2ccc(-c3ccccc3)cc2)C(=O)N[C@@H](Cc2c[nH]c3ccccc23)C(=O)N1 [Compound 717] | 10 to 30 |  |
| O=C1COc2ccc(cc2)C[C@@H](C(=O)O)NC(=O)[C@H](Cc2ccc(-c3ccccc3)cc2)NC(=O)[C@@H](Cc2ccc(-c3ccccc3)cc2)NC(=O)[C@H](Cc2cccs2)N1 [Compound 726] | 30 to 100 |  |
| O=C1COc2ccc(cc2)C[C@H](C(=O)O)NC(=O)[C@H](Cc2ccccc2F)NC(=O)[C@@H](Cc2ccc(-c3ccccc3)cc2)NC(=O)[C@H](Cc2c[nH]c3ccccc23)N1 [Compound 728] | 10 to 30 |  |
| O=C1COc2ccc(cc2)C[C@H](C(=O)O)NC(=O)[C@H](Cc2ccccc2F)NC(=O)[C@@H](Cc2ccc(-c3ccccc3)cc2)NC(=O)[C@H](Cc2ccncc2)N1 [Compound 729] | > 100 |  |
| O=C1COc2ccc(cc2)C[C@H](C(=O)O)NC(=O)[C@H](Cc2c[nH]c3ccccc23)NC(=O)[C@@H](Cc2ccc(-c3ccccc3)cc2)NC(=O)[C@H](Cc2c[nH]c3ccccc23)N1 [Compound 731] | 10 to 30 |  |
| O=C1COc2ccc(cc2)C[C@H](C(=O)O)NC(=O)[C@H](Cc2c[nH]c3ccccc23)NC(=O)[C@@H](Cc2ccc(-c3ccccc3)cc2)NC(=O)[C@H](Cc2ccncc2)N1 [Compound 732] | > 100 |  |
| O=C1COc2ccc(cc2)C[C@H](C(=O)N[C@H](CCc2ccccc2)C(=O)O)NC(=O)[C@H](Cc2ccccc2F)NC(=O)[C@@H](Cc2ccc(-c3ccccc3)cc2)NC(=O)[C@H](Cc2c[nH]c3ccccc23)N1 [Compound 735] | 10 to 30 |  |
| O=C1COc2ccc(cc2)C[C@H](C(=O)N[C@H](CCc2ccccc2)C(=O)O)NC(=O)[C@H](CCc2ccccc2)NC(=O)[C@@H](Cc2ccc(-c3ccccc3)cc2)NC(=O)[C@H](Cc2c[nH]c3ccccc23)N1 [Compound 737] |  | < 10 |
| O=C1COc2ccc(cc2)C[C@H](C(=O)N[C@H](CCc2ccccc2)C(=O)O)NC(=O)[C@H](Cc2c[nH]c3ccccc23)NC(=O)[C@@H](Cc2ccc(-c3ccccc3)cc2)NC(=O)[C@H](Cc2ccncc2)N1 [Compound 740] |  | 10 to 30 |
| O=C1COc2ccc(cc2)C[C@@H](C(=O)N[C@H](CCc2ccccc2)C(=O)O)NC(=O)[C@H](Cc2ccccc2F)NC(=O)[C@@H](Cc2ccc(-c3ccccc3)cc2)NC(=O)[C@H](Cc2c[nH]c3ccccc23)N1 [Compound 741] | < 10 |  |
| O=C1COc2ccc(cc2)C[C@@H](C(=O)N[C@H](CCc2ccccc2)C(=O)O)NC(=O)[C@H](Cc2ccccc2F)NC(=O)[C@@H](Cc2ccc(-c3ccccc3)cc2)NC(=O)[C@H](Cc2ccncc2)N1 [Compound 742] | < 10 |  |
| O=C1COc2ccc(cc2)C[C@@H](C(=O)N[C@H](CCc2ccccc2)C(=O)O)NC(=O)[C@H](CCc2ccccc2)NC(=O)[C@@H](Cc2ccc(-c3ccccc3)cc2)NC(=O)[C@H](Cc2c[nH]c3ccccc23)N1 [Compound 743] |  | < 10 |

Further lines, with some results ahead:

| IC50 [1] [µM] | SMILES | IC50 [2] [µM] |
| --- | --- | --- |
| < 10 | O=C1COc2ccc(cc2)C[C@@H](C(=O)O)NC(=O)[C@H](CCc2ccccc2)NC(=O)[C@@H](Cc2ccc(-c3ccccc3)cc2)NC(=O)[C@H](Cc2ccc(-c3ccc(Cl)cc3)cc2)N1 [Compound 702] |  |
| < 10 | O=C1COc2ccc(cc2)C[C@@H](C(=O)O)NC(=O)[C@H](CCc2ccccc2)NC(=O)[C@@H](Cc2ccc(-c3ccccc3)cc2)NC(=O)[C@H](Cc2ccc(Cl)cc2)N1 [Compound 707] |  |
| < 10 | O=C1Nc2ccc(cc2)C[C@H](C(=O)N[C@@H](Cc2ccccc2)C(=O)O)NC(=O)[C@@H](Cc2ccccc2)NC(=O)[C@H](Cc2ccc(-c3ccccc3)cc2)NC(=O)[C@@H](Cc2cccs2)NC(=O)C2CC12 (stereo partly drawn) [Compound 708] |  |
| < 10 | O=C(O)CCCNC(=O)[C@H]1Cc2ccc(cc2)OCC(=O)N[C@@H](Cc2c[nH]c3ccccc23)C(=O)N[C@H](Cc2ccc(-c3ccccc3)cc2)C(=O)N[C@@H](Cc2c[nH]c3ccccc23)C(=O)N1 [Compound 716] |  |
| < 10 | O=C(O)CCCNC(=O)[C@@H]1Cc2ccc(cc2)OCC(=O)N[C@@H](Cc2c[nH]c3ccccc23)C(=O)N[C@H](Cc2ccc(-c3ccccc3)cc2)C(=O)N[C@@H](Cc2ccccc2F)C(=O)N1 [Compound 718] |  |
| < 10 | O=C(O)CCCNC(=O)[C@@H]1Cc2ccc(cc2)OCC(=O)N[C@@H](Cc2ccncc2)C(=O)N[C@H](Cc2ccc(-c3ccccc3)cc2)C(=O)N[C@@H](Cc2ccccc2F)C(=O)N1 [Compound 719] |  |
| < 10 | O=C(O)CCCNC(=O)[C@@H]1Cc2ccc(cc2)OCC(=O)N[C@@H](Cc2c[nH]c3ccccc23)C(=O)N[C@H](Cc2ccc(-c3ccccc3)cc2)C(=O)N[C@@H](CCc2ccccc2)C(=O)N1 [Compound 720] |  |
| < 10 | O=C(O)CCCNC(=O)[C@@H]1Cc2ccc(cc2)OCC(=O)N[C@@H](Cc2c[nH]c3ccccc23)C(=O)N[C@H](Cc2ccc(-c3ccccc3)cc2)C(=O)N[C@@H](Cc2c[nH]c3ccccc23)C(=O)N1 [Compound 721] |  |
| < 10 | O=C(O)CCCNC(=O)[C@@H]1Cc2ccc(cc2)OCC(=O)N[C@@H](Cc2ccncc2)C(=O)N[C@H](Cc2ccc(-c3ccccc3)cc2)C(=O)N[C@@H](Cc2c[nH]c3ccccc23)C(=O)N1 [Compound 722] |  |
| < 10 | O=C1COc2ccc(cc2)C[C@@H](C(=O)O)NC(=O)[C@H](CCc2ccccc2)NC(=O)[C@@H](CCc2ccccc2)NC(=O)[C@H](CCc2ccccc2)N1 [Compound 724] |  |
| < 10 | O=C1COc2ccc(cc2)C[C@@H](C(=O)O)NC(=O)[C@H](Cc2ccc(-c3ccccc3)cc2)NC(=O)[C@@H](Cc2ccc(-c3ccccc3)cc2)NC(=O)[C@H](CCc2ccccc2)N1 [Compound 725] |  |
| < 10 | O=C1COc2ccc(cc2)C[C@H](C(=O)O)NC(=O)[C@H](CCc2ccccc2)NC(=O)[C@@H](Cc2ccc(-c3ccccc3)cc2)NC(=O)[C@H](Cc2c[nH]c3ccccc23)N1 [Compound 730] |  |
| < 10 | O=C1COc2ccc(cc2)C[C@@H](C(=O)O)NC(=O)[C@H](Cc2ccccc2F)NC(=O)[C@@H](Cc2ccc(-c3ccccc3)cc2)NC(=O)[C@H](Cc2c[nH]c3ccccc23)N1 [Compound 733] |  |
| < 10 | O=C1COc2ccc(cc2)C[C@@H](C(=O)O)NC(=O)[C@H](CCc2ccccc2)NC(=O)[C@@H](Cc2ccc(-c3ccccc3)cc2)NC(=O)[C@H](Cc2c[nH]c3ccccc23)N1 [Compound 734] |  |
| < 10 | O=C1COc2ccc(cc2)C[C@H](C(=O)N[C@H](CCc2ccccc2)C(=O)O)NC(=O)[C@H](Cc2ccccc2F)NC(=O)[C@@H](Cc2ccc(-c3ccccc3)cc2)NC(=O)[C@H](Cc2ccncc2)N1 [Compound 736] |  |
| < 10 | O=C1COc2ccc(cc2)C[C@H](C(=O)N[C@H](CCc2ccccc2)C(=O)O)NC(=O)[C@H](CCc2ccccc2)NC(=O)[C@@H](Cc2ccc(-c3ccccc3)cc2)NC(=O)[C@H](Cc2ccncc2)N1 [Compound 738] |  |
| < 10 | O=C1COc2ccc(cc2)C[C@H](C(=O)N[C@H](CCc2ccccc2)C(=O)O)NC(=O)[C@H](Cc2c[nH]c3ccccc23)NC(=O)[C@@H](Cc2ccc(-c3ccccc3)cc2)NC(=O)[C@H](Cc2c[nH]c3ccccc23)N1 [Compound 739] |  |
